From patent publication US20180193332A1, “LOW-TEMPERATURE STABLE OPIOID ANTAGONIST SOLUTIONS” (priority 2017, published 2018)
Where a name gives a salt, the structure may show the parent alone.

What was measured:
[1] = Naloxone stability (visual precipitation) during storage at 4° C.; type: physicochemical
[2] = Naloxone HCl precipitation after freeze/thaw; type: physicochemical
Excerpt: However, the solution remained opaque when thawed, and precipitation was evident. […] The precipitate could not be re-dissolved in solution following sonication. […]

[3] = per 100 mL: EDTA-Na2 0 mg, PG 5% w/v
[4] = per 100 mL: EDTA-Na2 0 mg, PG 10% w/v
[5] = per 100 mL: EDTA-Na2 0 mg, PG 20% w/v
[6] = per 100 mL: EDTA-Na2 100 mg, PG 5% w/v
[7] = per 100 mL: EDTA-Na2 100 mg, PG 10% w/v
[8] = per 100 mL: EDTA-Na2 100 mg, PG 20% w/v

C=CCN1CC[C@]23c4c5ccc(O)c4O[C@H]2C(=O)CC[C@@]3(O)[C@H]1C5 [Naloxone]
No: Observed naloxone precipitation 24 days [1, 3] | Observed naloxone precipitation 35 days [1, 3] | Observed naloxone precipitation 53 days [1, 3] | Observed naloxone precipitation 24 days [1, 4] | Observed naloxone precipitation 35 days [1, 4] | Observed naloxone precipitation 53 days [1, 4] | Observed naloxone precipitation 24 days [1, 5] | Observed naloxone precipitation 35 days [1, 5] | Observed naloxone precipitation 53 days [1, 5] | Observed naloxone precipitation 24 days [1, 6] | Observed naloxone precipitation 35 days [1, 6] | Observed naloxone precipitation 53 days [1, 6] | Observed naloxone precipitation 24 days [1, 7] | Observed naloxone precipitation 35 days [1, 7]
No and Yes: Observed naloxone precipitation 35 days [1, 8] | Observed naloxone precipitation 53 days [1, 8]
No and Slight: Observed naloxone precipitation 53 days [1, 7] | Observed naloxone precipitation 24 days [1, 8]

C=CCN1CC[C@]23c4c5ccc(O)c4O[C@H]2C(=O)CC[C@@]3(O)[C@H]1C5 [naloxone HCl]
no: Naloxone precipitation? ([2]; per mL: NaCl 7.4 mg, EDTA-Na2 0.0 mg, PG 10% w/v, EtOH 0% w/v, 3 freeze/thaw cycles) | Naloxone precipitation? ([2]; per mL: NaCl 7.4 mg, EDTA-Na2 0.0 mg, PG 20% w/v, EtOH 0% w/v, 3 freeze/thaw cycles) | Naloxone precipitation? ([2]; per mL: NaCl 7.4 mg, EDTA-Na2 1.0 mg, PG 5% w/v, EtOH 0% w/v, 3 freeze/thaw cycles) | Naloxone precipitation? ([2]; per mL: NaCl 7.4 mg, EDTA-Na2 1.0 mg, PG 10% w/v, EtOH 0% w/v, 3 freeze/thaw cycles) | Naloxone precipitation? ([2]; per mL: NaCl 7.4 mg, EDTA-Na2 1.0 mg, PG 20% w/v, EtOH 0% w/v, 4 freeze/thaw cycles) | Naloxone precipitation? ([2]; per mL: NaCl 7.4 mg, EDTA-Na2 1.0 mg, PG 20% w/v, EtOH 0% w/v, 7 freeze/thaw cycles)
yes: Naloxone precipitation? ([2]; per mL: NaCl 3.7 mg, EDTA-Na2 2.0 mg, PG 20% w/v, EtOH 0% w/v, 1 freeze/thaw cycle) | Naloxone precipitation? ([2]; per mL: NaCl 7.4 mg, EDTA-Na2 2.0 mg, PG 10% w/v, EtOH 0% w/v, 1 freeze/thaw cycle) | Naloxone precipitation? ([2]; per mL: NaCl 7.4 mg, EDTA-Na2 2.0 mg, PG 20% w/v, EtOH 0% w/v, 1 freeze/thaw cycle) | Naloxone precipitation? ([2]; per mL: NaCl 7.4 mg, EDTA-Na2 2.0 mg, PG 20% w/v, EtOH 2% w/v, 1 freeze/thaw cycle) | Naloxone precipitation? ([2]; per mL: NaCl 7.4 mg, EDTA-Na2 2.0 mg, PG 20% w/v, EtOH 5% w/v, 1 freeze/thaw cycle) | Naloxone precipitation? ([2]; per mL: NaCl 7.4 mg, EDTA-Na2 2.0 mg, PG 20% w/v, EtOH 10% w/v, 1 freeze/thaw cycle) | Naloxone precipitation? ([2]; per mL: NaCl 7.4 mg, EDTA-Na2 2.0 mg, PG 30% w/v, EtOH 0% w/v, 1 freeze/thaw cycle)
No: Naloxone precipitation? ([2]; per mL: NaCl 7.4 mg, EDTA-Na2 0.0 mg, PG 5% w/v, EtOH 0% w/v, 3 freeze/thaw cycles)
